Assay [1] deals with Escherichia coli. Put plainly: microbe, parasite or virus in culture. Particulars: ATCC 25922, 18 h, ASSAY_TEST Inhibition of Bacterial Growth, detection method Absorption (OD600), MEDIA CAMHB, plate type 384well, NBS, CORNING #3640.
Description: Antibacterial activity against Escherichia coli ATCC 25922 (CO-ADD:GN_001); MIC in CAMBH media using NBS plates, by OD(600)
For assay [2], the system named is Candida albicans. Put plainly: microbe, parasite or virus in culture. The following applies: ATCC 90028, ASSAY_TEST Inhibition of Fungal Growth, detection method Absorption (OD530), plate type 384well, NBS, CORNING #3640.
Description: Antifungal activity against Candida albicans ATCC 90028 (CO-ADD:FG_001); MIC in YNB media using NBS plates, by OD630
Assay [3] deals with Pseudomonas aeruginosa. Put plainly: microbe, parasite or virus in culture. The following applies: ATCC 27853, 18 h, ASSAY_TEST Inhibition of Bacterial Growth, detection method Absorption (OD600), MEDIA CAMHB, plate type 384well, NBS, CORNING #3640.
Description: Antibacterial activity against Pseudomonas aeruginosa ATCC 27853 (CO-ADD:GN_042); MIC in CAMBH media using NBS plates, by OD(600)
The test system of assay [4] is Cryptococcus neoformans.
Description: Antifungal activity against Cryptococcus neoformans H99 ATCC 208821 (CO-ADD:FG_002); MIC in YNB media using NBS plates, by Resazurin OD(600-570)
Assay [5] relates to Klebsiella pneumoniae. Put plainly: microbe, parasite or virus in culture. Particulars: ATCC 700603, 18 h, ASSAY_TEST Inhibition of Bacterial Growth, detection method Absorption (OD600), MEDIA CAMHB, plate type 384well, NBS, CORNING #3640.
Description: Antibacterial activity against Klebsiella pneumoniae MDR ATCC 70063 (CO-ADD:GN_003); MIC in CAMBH media using NBS plates, by OD(600)
Assay [6] deals with Staphylococcus aureus. Put plainly: microbe, parasite or virus in culture. The following applies: ATCC 43300, 18 h, ASSAY_TEST Inhibition of Bacterial Growth, detection method Absorption (OD600), MEDIA CAMHB, plate type 384well, NBS, CORNING #3640.
Description: Antibacterial activity against Staphylococcus aureus MRSA ATCC 43300 (CO-ADD:GP_020); MIC in CAMBH media, using NBS plates, by OD(600)
The test system of assay [7] is HEK293. Put plainly: cells. The class given is functional. Particulars: Homo sapiens, ATCC CRL1573, HEK293; ASSAY_TEST Inhibition of Cell Viability; detection method Resazurin; Fluorescence (ex560/em590); MEDIA DMEM with 10% FBS; plate type 384well; TC; CORNING #3712; time 18 hr. Background: Resazurin is reduced to fluorescent resorufin, in cell work by metabolically active cells.

Assay [8] relates to Acinetobacter baumannii. Put plainly: microbe, parasite or virus in culture. The following applies: ATCC 19606, 18 h, ASSAY_TEST Inhibition of Bacterial Growth, detection method Absorption (OD600), MEDIA CAMHB, plate type 384well, NBS, CORNING #3640.
Description: Antibacterial activity against Acinetobacter baumannii ATCC 19606 (CO-ADD:GN_034); MIC in CAMBH media using NBS plates, by OD600

The text below walks through data of ChEMBL document CHEMBL4513137, “CO-ADD screening of University of Manchester (UK) compounds”.

In brackets after ≈: the same amount, converted by molar mass. Where only a bound is given, the exact number is not on record here.

In general, CC50 refers to the concentration that lowers cell viability or growth by half. Read a high CC50 as better tolerance by the cells. Take `O=[N+]([O-])c1ccccc1-c1ccccc1N(Cc1ccccc1)c1ccccc1`: the MIC is greater than 32 µg/mL in assay [1]; 32 µg/mL (≈ 84.1 µM) in assay [2]; greater than 32 µg/mL in assay [3]; greater than 32 µg/mL in assay [4]; greater than 32 µg/mL in assay [5]; greater than 32 µg/mL in assay [6]. Also, the MIC in assay [8] was greater than 32 µg/mL. The compound further gave a CC50 in assay [7] of 8.14 µg/mL (≈ 21.4 µM).

Turning to `Cc1ccccc1Nc1ccccc1-c1ccccc1[N+](=O)[O-]`, the MIC in assay [1] is greater than 32 µg/mL; in assay [2] it was 8 µg/mL (≈ 26.3 µM); in assay [3] it was greater than 32 µg/mL; in assay [4] it was 32 µg/mL (≈ 105 µM); in assay [5], greater than 32 µg/mL; in assay [6], 4 µg/mL (≈ 13.1 µM). The compound also returned an MIC in assay [8] greater than 32 µg/mL. The compound also came in with a CC50 in assay [7] of 1.95 µg/mL (≈ 6.41 µM).

For the compound `O=[N+]([O-])c1ccccc1-c1ccccc1Nc1ccccc1`, the MIC in assay [1] is greater than 32 µg/mL; in assay [2], 8 µg/mL (≈ 27.6 µM); in assay [3] it was greater than 32 µg/mL; in assay [4], 16 µg/mL (≈ 55.1 µM); in assay [5], greater than 32 µg/mL; in assay [6], 16 µg/mL (≈ 55.1 µM). For the same compound, the MIC in assay [8] was greater than 32 µg/mL. The CC50 in assay [7] is 2.15 µg/mL (≈ 7.41 µM).

As to `Cc1cc(C)c(Nc2ccccc2-c2ccccc2[N+](=O)[O-])c(C)c1`, the MIC is greater than 32 µg/mL in assay [1]; 16 µg/mL (≈ 48.1 µM) in assay [2]; greater than 32 µg/mL in assay [3]; greater than 32 µg/mL in assay [4]; greater than 32 µg/mL in assay [5]; greater than 32 µg/mL in assay [6]. In addition, in assay [8], the MIC was greater than 32 µg/mL. This compound had a CC50 in assay [7] of 13.1 µg/mL (≈ 39.4 µM).

Take `Cc1cc(C)c(Nc2ccccc2-c2ccc([N+](=O)[O-])cc2[N+](=O)[O-])c(C)c1`: the MIC in assay [1] is greater than 32 µg/mL; in assay [2], 4 µg/mL (≈ 10.6 µM); in assay [3] it was greater than 32 µg/mL; in assay [4], greater than 32 µg/mL; in assay [5], greater than 32 µg/mL; in assay [6], 32 µg/mL (≈ 84.8 µM). The compound also came in with an MIC in assay [8] greater than 32 µg/mL. Also, the CC50 in assay [7] came to 15.7 µg/mL (≈ 41.6 µM).

Regarding `C=C[C@]1(C)C[C@@H](OC(=O)CO)[C@]2(C)[C@H](C)CC[C@]3(CCC(=O)[C@H]32)[C@@H](C)[C@@H]1O` [PLEUROMULIN], the MIC is greater than 32 µg/mL in assay [1]; greater than 32 µg/mL in assay [2]; greater than 32 µg/mL in assay [3]; greater than 32 µg/mL in assay [4]; greater than 32 µg/mL in assay [5]; 2 µg/mL (≈ 5.28 µM) in assay [6]. The compound also gave an MIC in assay [8] greater than 32 µg/mL. Moreover, the CC50 in assay [7] was greater than 32 µg/mL.
